Experimental data published in ChEMBL document CHEMBL1151840, “Synthetic oligoribonucleotides containing arabinonucleotides act as agonists of TLR7 and 8” (Bioorg Med Chem Lett, 2009).
Active and inactive are the calls of the source. The rule behind the calls is not given here.

Key:
Homo sapiens [1] = species on record: Homo sapiens; assay: Stimulation of immune response in human pDC assessed as induction of IFNalpha production at 150 ug/ml after 24 hrs; format: functional
PBMC [2] = assay: Stimulation of immune response in human PBMC assessed as induction of MIP1alpha production at 150 ug/ml after 24 hrs; format: functional, cell-based
Homo sapiens [3] = species on record: Homo sapiens; assay: Stimulation of immune response in human pDC assessed as induction of MIP1alpha production at 150 ug/ml after 24 hrs; format: functional
PBMC [4] = assay: Stimulation of immune response in human PBMC assessed as induction of MCP1 production at 150 ug/ml after 24 hrs; format: functional, cell-based
[5] = Stability in human serum assessed as full-length compound remaining after 10 mins by anion-exchange HPLC; format: ADME, cell-free; conditions: read-out: Stability
PBMC [6] = assay: Stimulation of immune response in human PBMC assessed as induction of IL12 production at 150 ug/ml after 24 hrs; format: functional, cell-based
PBMC [7] = assay: Stimulation of immune response in human PBMC assessed as induction of IL8 production at 150 ug/ml after 24 hrs; format: functional, cell-based
PBMC [8] = assay: Stimulation of immune response in human PBMC assessed as induction of TNFalpha production at 150 ug/ml after 24 hrs; format: functional, cell-based
PBMC [9] = assay: Stimulation of immune response in human PBMC assessed as induction of IFNalpha production at 150 ug/ml after 24 hrs; format: functional, cell-based
Homo sapiens [10] = species on record: Homo sapiens; assay: Stimulation of immune response in human pDC assessed as induction of IL12 production at 150 ug/ml after 24 hrs; format: functional
PBMC [11] = assay: Stimulation of immune response in human PBMC assessed as induction of IFN-gamma production at 150 ug/ml after 24 hrs; format: functional, cell-based
Homo sapiens [12] = species on record: Homo sapiens; assay: Stimulation of immune response in human pDC assessed as induction of IFN-gamma production at 150 ug/ml after 24 hrs; format: functional
Homo sapiens [13] = species on record: Homo sapiens; assay: Stimulation of immune response in human pDC assessed as induction of TNFalpha production at 150 ug/ml after 24 hrs; format: functional
PBMC [14] = assay: Stimulation of immune response in human PBMC assessed as induction of IL10 production at 150 ug/ml after 24 hrs; format: functional, cell-based
[15] = biological target: T1, Toll-like receptor 8 (Homo sapiens) (UniProt Q9NR97); assay: Agonist activity at human TLR8 expressed in HEK293XL cells assessed as NF-kappaB activation after 18 hrs; format: functional, cell-based
T1 sequence (whole entry): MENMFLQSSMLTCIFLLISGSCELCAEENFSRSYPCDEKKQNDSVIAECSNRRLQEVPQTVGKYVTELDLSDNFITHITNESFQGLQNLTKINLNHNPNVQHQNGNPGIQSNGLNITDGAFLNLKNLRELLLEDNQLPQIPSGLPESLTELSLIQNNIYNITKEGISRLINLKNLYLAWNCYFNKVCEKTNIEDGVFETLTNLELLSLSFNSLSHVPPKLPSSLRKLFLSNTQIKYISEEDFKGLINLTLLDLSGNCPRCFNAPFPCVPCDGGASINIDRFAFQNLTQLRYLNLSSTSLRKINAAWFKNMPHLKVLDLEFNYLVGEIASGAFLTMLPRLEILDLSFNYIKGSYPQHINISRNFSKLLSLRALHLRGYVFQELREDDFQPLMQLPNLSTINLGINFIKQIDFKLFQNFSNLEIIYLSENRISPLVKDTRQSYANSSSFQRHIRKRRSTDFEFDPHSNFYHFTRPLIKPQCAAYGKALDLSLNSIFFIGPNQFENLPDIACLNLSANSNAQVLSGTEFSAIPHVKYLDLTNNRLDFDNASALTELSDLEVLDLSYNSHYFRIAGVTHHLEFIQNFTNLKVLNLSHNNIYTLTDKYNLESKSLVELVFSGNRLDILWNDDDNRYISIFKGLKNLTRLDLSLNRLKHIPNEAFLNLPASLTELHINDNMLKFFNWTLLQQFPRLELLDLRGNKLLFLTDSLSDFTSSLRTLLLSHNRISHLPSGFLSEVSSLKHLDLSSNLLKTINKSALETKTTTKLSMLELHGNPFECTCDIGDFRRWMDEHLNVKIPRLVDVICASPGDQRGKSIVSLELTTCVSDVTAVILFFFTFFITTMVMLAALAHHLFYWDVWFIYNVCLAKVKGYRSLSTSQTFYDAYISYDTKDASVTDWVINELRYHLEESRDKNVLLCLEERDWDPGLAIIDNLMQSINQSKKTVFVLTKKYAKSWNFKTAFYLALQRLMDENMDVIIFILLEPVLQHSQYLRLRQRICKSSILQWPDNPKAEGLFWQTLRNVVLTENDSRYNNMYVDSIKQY

PBMC [16] = assay: Stimulation of immune response in human PBMC assessed as induction of MIP1beta production at 150 ug/ml after 24 hrs; format: functional, cell-based
[17] = biological target: T2, Toll-like receptor 7 (Homo sapiens) (UniProt Q9NYK1); assay: Agonist activity at human TLR7 expressed in HEK293XL cells assessed as NF-kappaB activation at 300 ug/ml after 18 hrs; format: functional, cell-based
T2 sequence (whole entry): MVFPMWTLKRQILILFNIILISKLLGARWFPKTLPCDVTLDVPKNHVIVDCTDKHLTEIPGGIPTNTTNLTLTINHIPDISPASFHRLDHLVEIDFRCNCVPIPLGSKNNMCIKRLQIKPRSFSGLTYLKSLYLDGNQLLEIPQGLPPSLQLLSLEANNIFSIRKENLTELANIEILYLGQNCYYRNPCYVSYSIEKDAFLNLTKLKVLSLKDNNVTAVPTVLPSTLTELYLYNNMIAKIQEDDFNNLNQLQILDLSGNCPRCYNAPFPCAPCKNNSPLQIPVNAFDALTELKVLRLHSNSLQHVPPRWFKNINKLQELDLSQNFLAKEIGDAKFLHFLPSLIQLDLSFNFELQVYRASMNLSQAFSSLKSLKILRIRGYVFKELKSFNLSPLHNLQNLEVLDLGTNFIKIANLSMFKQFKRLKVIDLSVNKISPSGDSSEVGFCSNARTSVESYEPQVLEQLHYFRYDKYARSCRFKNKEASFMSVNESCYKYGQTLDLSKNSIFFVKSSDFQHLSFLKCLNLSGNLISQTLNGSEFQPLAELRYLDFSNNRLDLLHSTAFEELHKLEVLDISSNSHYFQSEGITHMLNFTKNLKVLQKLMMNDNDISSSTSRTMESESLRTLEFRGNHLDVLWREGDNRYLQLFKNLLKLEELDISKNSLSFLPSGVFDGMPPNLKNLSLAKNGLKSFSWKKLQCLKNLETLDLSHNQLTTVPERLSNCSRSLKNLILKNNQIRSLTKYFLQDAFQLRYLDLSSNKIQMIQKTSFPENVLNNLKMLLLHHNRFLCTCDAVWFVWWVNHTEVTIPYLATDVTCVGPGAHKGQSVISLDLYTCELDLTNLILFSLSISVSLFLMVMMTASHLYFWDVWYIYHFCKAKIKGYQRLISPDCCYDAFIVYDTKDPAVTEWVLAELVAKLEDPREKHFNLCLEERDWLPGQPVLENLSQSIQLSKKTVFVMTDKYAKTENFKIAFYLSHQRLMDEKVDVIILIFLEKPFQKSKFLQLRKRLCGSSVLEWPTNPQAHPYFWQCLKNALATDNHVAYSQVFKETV

PBMC [18] = assay: Stimulation of immune response in human PBMC assessed as induction of RANTES production at 150 ug/ml after 24 hrs; format: functional, cell-based
Mus musculus = assay: Stimulation of immune response in C57BL/6 mouse assessed as induction of serum IL12 production at 50 mg/kg, sc after 2 hrs by luminex multiplex assay; format: functional, organism-based; design: dose 50 mg/kg
PBMC [19] = assay: Stimulation of immune response in human PBMC assessed as induction of IL1-beta production at 150 ug/ml after 24 hrs; format: functional, cell-based
Homo sapiens [20] = species on record: Homo sapiens; assay: Stimulation of immune response in human pDC assessed as induction of MIP1beta production at 150 ug/ml after 24 hrs; format: functional
PBMC [21] = assay: Stimulation of immune response in human PBMC assessed as induction of IL2R level at 150 ug/ml after 24 hrs; format: functional, cell-based

Nc1ccn([C@@H]2O[C@H](COP(=O)(S)O[C@H]3[C@@H](O)[C@H](n4ccc(=O)[nH]c4=O)O[C@@H]3COP(=O)(S)O[C@H]3[C@@H](O)[C@H](n4ccc(=O)[nH]c4=O)O[C@@H]3COP(=O)(S)O[C@H]3[C@H](O)[C@H](n4cnc5c(=O)[nH]c(N)nc54)O[C@@H]3COP(=O)(S)O[C@H]3[C@@H](O)[C@H](n4ccc(=O)[nH]c4=O)O[C@@H]3COP(=O)(S)O[C@H]3[C@H](O)[C@H](n4cnc5c(=O)[nH]c(N)nc54)O[C@@H]3COP(=O)(S)OCC(O)COP(=O)(S)O[C@H]3[C@H](O)[C@H](n4cnc5c(=O)[nH]c(N)nc54)O[C@@H]3COP(=O)(S)O[C@H]3[C@@H](O)[C@H](n4ccc(=O)[nH]c4=O)O[C@@H]3COP(=O)(S)O[C@H]3[C@H](O)[C@H](n4cnc5c(=O)[nH]c(N)nc54)O[C@@H]3COP(=O)(S)O[C@H]3[C@@H](O)[C@H](n4ccc(=O)[nH]c4=O)O[C@@H]3COP(=O)(S)O[C@H]3[C@@H](O)[C@H](n4ccc(=O)[nH]c4=O)O[C@@H]3COP(=O)(S)O[C@H]3[C@@H](O)[C@H](n4ccc(N)nc4=O)O[C@@H]3COP(=O)(S)O[C@H]3[C@H](O)[C@H](n4cnc5c(=O)[nH]c(N)nc54)O[C@@H]3COP(=O)(S)O[C@H]3[C@@H](O)[C@H](n4ccc(=O)[nH]c4=O)O[C@@H]3COP(=O)(S)O[C@H]3[C@@H](O)[C@H](n4ccc(N)nc4=O)O[C@@H]3COP(=O)(S)O[C@H]3[C@H](O)[C@H](n4cnc5c(=O)[nH]c(N)nc54)O[C@@H]3COP(=O)(S)O[C@H]3[C@@H](O)[C@H](n4ccc(=O)[nH]c4=O)O[C@@H]3CO)[C@@H](OP(=O)(S)OC[C@H]3O[C@@H](n4cnc5c(=O)[nH]c(N)nc54)[C@@H](O)[C@@H]3OP(=O)(S)OC[C@H]3O[C@@H](n4ccc(=O)[nH]c4=O)[C@H](O)[C@@H]3OP(=O)(S)OC[C@H]3O[C@@H](n4ccc(N)nc4=O)[C@H](O)[C@@H]3OP(=O)(S)OC[C@H]3O[C@@H](n4cnc5c(=O)[nH]c(N)nc54)[C@@H](O)[C@@H]3OP(=O)(S)OC[C@H]3O[C@@H](n4ccc(=O)[nH]c4=O)[C@H](O)[C@@H]3OP(=O)(O)S)[C@H]2O)c(=O)n1 (some centres not stated)
Activity (Homo sapiens [1]): inactive | Activity (PBMC [2]): Active | Activity (Homo sapiens [3]): Active | Activity (PBMC [4]): Active | remaining at 10 min [5]: 76% | Activity (PBMC [6]): Active | Activity (PBMC [7]): Active | Activity (PBMC [8]): Active | Activity (PBMC [9]): Active | Activity (Homo sapiens [10]): Active | Activity (PBMC [11]): Active | Activity (Homo sapiens [12]): Active | Activity (Homo sapiens [13]): Active | Activity (PBMC [14]): Active | Activity [15]: Dose-dependent effect | Activity (PBMC [16]): Active | Activity [17]: inactive | Activity (PBMC [18]): Active | Activity (Mus musculus): inactive | Activity (PBMC [19]): Active | Activity (Homo sapiens [20]): Active | Activity (PBMC [21]): Active
